Test results from the NIST ThermoML archive (doi:10.1016/j.jct.2012.06.012).

Experiment: xn = mol fraction of the nth substance listed
Details: Liquid, Vibrating tube method

CCCCCCCCCC [decane] + CCO
Details	mass density [kg/m3]
313.07 K, 1000 kPa, x2 = 0.9014	753.75
313.07 K, 2000 kPa, x2 = 0.9014	754.71
313.07 K, 3000 kPa, x2 = 0.9014	755.67
313.07 K, 4000 kPa, x2 = 0.9014	756.61
313.07 K, 5000 kPa, x2 = 0.9014	757.53
313.07 K, 6000 kPa, x2 = 0.9014	758.44
313.07 K, 7000 kPa, x2 = 0.9014	759.33
313.07 K, 8000 kPa, x2 = 0.9014	760.24
313.07 K, 9000 kPa, x2 = 0.9014	761.14
313.07 K, 10000 kPa, x2 = 0.9014	762.04
313.07 K, 11000 kPa, x2 = 0.9014	762.94
313.07 K, 12000 kPa, x2 = 0.9014	763.84
313.07 K, 13000 kPa, x2 = 0.9014	764.72
313.07 K, 14000 kPa, x2 = 0.9014	765.58
313.07 K, 15000 kPa, x2 = 0.9014	766.45
313.07 K, 16000 kPa, x2 = 0.9014	767.29
313.07 K, 17000 kPa, x2 = 0.9014	768.13
313.07 K, 18000 kPa, x2 = 0.9014	768.94
313.07 K, 19000 kPa, x2 = 0.9014	769.74
313.07 K, 20000 kPa, x2 = 0.9014	770.52
313.08 K, 1000 kPa, x2 = 0.1011	715.15
313.08 K, 1000 kPa, x2 = 0.4963	724.28
313.08 K, 1000 kPa, x2 = 0.7526	738.33
313.08 K, 2000 kPa, x2 = 0.1011	716.05
313.08 K, 2000 kPa, x2 = 0.4963	725.2
313.08 K, 2000 kPa, x2 = 0.7526	739.26
313.08 K, 3000 kPa, x2 = 0.1011	716.93
313.08 K, 3000 kPa, x2 = 0.4963	726.11
313.08 K, 3000 kPa, x2 = 0.7526	740.19
313.08 K, 4000 kPa, x2 = 0.1011	717.8
313.08 K, 4000 kPa, x2 = 0.4963	727
313.08 K, 4000 kPa, x2 = 0.7526	741.1
313.08 K, 5000 kPa, x2 = 0.1011	718.66
313.08 K, 5000 kPa, x2 = 0.4963	727.87
313.08 K, 5000 kPa, x2 = 0.7526	741.99
313.08 K, 6000 kPa, x2 = 0.1011	719.51
313.08 K, 6000 kPa, x2 = 0.4963	728.73
313.08 K, 6000 kPa, x2 = 0.7526	742.87
313.08 K, 7000 kPa, x2 = 0.1011	720.34
313.08 K, 7000 kPa, x2 = 0.4963	729.58
313.08 K, 7000 kPa, x2 = 0.7526	743.75
313.08 K, 8000 kPa, x2 = 0.1011	721.16
313.08 K, 8000 kPa, x2 = 0.4963	730.44
313.08 K, 8000 kPa, x2 = 0.7526	744.64
313.08 K, 9000 kPa, x2 = 0.1011	721.98
313.08 K, 9000 kPa, x2 = 0.4963	731.3
313.08 K, 9000 kPa, x2 = 0.7526	745.53
313.08 K, 10000 kPa, x2 = 0.1011	722.8
313.08 K, 10000 kPa, x2 = 0.4963	732.16
313.08 K, 10000 kPa, x2 = 0.7526	746.41
313.08 K, 11000 kPa, x2 = 0.1011	723.63
313.08 K, 11000 kPa, x2 = 0.4963	733
313.08 K, 11000 kPa, x2 = 0.7526	747.29
313.08 K, 12000 kPa, x2 = 0.1011	724.45
313.08 K, 12000 kPa, x2 = 0.4963	733.86
313.08 K, 12000 kPa, x2 = 0.7526	748.17
313.08 K, 13000 kPa, x2 = 0.1011	725.26
313.08 K, 13000 kPa, x2 = 0.4963	734.7
313.08 K, 13000 kPa, x2 = 0.7526	749.03
313.08 K, 14000 kPa, x2 = 0.1011	726.06
313.08 K, 14000 kPa, x2 = 0.4963	735.54
313.08 K, 14000 kPa, x2 = 0.7526	749.89
313.08 K, 15000 kPa, x2 = 0.1011	726.85
313.08 K, 15000 kPa, x2 = 0.4963	736.35
313.08 K, 15000 kPa, x2 = 0.7526	750.73
313.08 K, 16000 kPa, x2 = 0.1011	727.63
313.08 K, 16000 kPa, x2 = 0.4963	737.16
313.08 K, 16000 kPa, x2 = 0.7526	751.56
313.08 K, 17000 kPa, x2 = 0.1011	728.39
313.08 K, 17000 kPa, x2 = 0.4963	737.95
313.08 K, 17000 kPa, x2 = 0.7526	752.38
313.08 K, 18000 kPa, x2 = 0.1011	729.13
313.08 K, 18000 kPa, x2 = 0.4963	738.72
313.08 K, 18000 kPa, x2 = 0.7526	753.17
313.08 K, 19000 kPa, x2 = 0.1011	729.85
313.08 K, 19000 kPa, x2 = 0.4963	739.47
313.08 K, 19000 kPa, x2 = 0.7526	753.95
313.08 K, 20000 kPa, x2 = 0.1011	730.55
313.08 K, 20000 kPa, x2 = 0.4963	740.21
313.08 K, 20000 kPa, x2 = 0.7526	754.7
313.09 K, 1000 kPa, x2 = 0.0937	715.17
313.09 K, 2000 kPa, x2 = 0.0937	716.07
313.09 K, 3000 kPa, x2 = 0.0937	716.95
313.09 K, 4000 kPa, x2 = 0.0937	717.82
313.09 K, 5000 kPa, x2 = 0.0937	718.68
313.09 K, 6000 kPa, x2 = 0.0937	719.53
313.09 K, 7000 kPa, x2 = 0.0937	720.36
313.09 K, 8000 kPa, x2 = 0.0937	721.18
313.09 K, 9000 kPa, x2 = 0.0937	721.99
313.09 K, 10000 kPa, x2 = 0.0937	722.79
